Measured values taken from US20250101038A1, “COMPOUNDS” (priority 2021, published 2025).

Tests used:
5-HT2B receptor = biological target: T1, 5-HT2B receptor (Homo sapiens, UniProt P41595); assay: cell-based; conditions: agonist activity, Ca2+ flux, CHO-K1 cells; for EC50: read-out: 5-HT2B EC50
T1 construct: host or cells: CHO-K1

5-HT2A receptor = biological target: T2, 5-HT2A receptor (Homo sapiens, UniProt P28223); assay: FLIPR Ca2+ flux functional assay, 5-HT2A; format: cell-based; conditions: agonist activity, Ca2+ flux, HEK293 cells; for EC50: read-out: 5-HT2A EC50
T2 construct: host or cells: HEK293
T2 sequence (P28223 whole entry): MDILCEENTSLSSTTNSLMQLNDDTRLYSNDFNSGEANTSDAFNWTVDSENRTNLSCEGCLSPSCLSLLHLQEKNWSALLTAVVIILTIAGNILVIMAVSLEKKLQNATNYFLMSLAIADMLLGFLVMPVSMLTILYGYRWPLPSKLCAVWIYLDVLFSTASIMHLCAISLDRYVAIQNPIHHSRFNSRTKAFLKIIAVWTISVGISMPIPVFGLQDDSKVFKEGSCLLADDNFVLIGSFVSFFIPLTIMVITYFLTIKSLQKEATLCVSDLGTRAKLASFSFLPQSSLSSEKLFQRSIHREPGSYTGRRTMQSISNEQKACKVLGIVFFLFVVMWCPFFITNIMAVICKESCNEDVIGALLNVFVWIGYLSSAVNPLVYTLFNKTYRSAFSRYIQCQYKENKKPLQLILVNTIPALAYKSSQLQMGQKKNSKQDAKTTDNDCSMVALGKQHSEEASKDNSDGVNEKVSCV
Method: Activity at 5-HT2A, 5-HT2B and 5-HT2C receptors was determined using a FLIPR Ca^2+ flux assay at WuXi AppTec Co. Ltd. (Hong Kong) Discovery Biology Unit according to their standard protocols. Briefly, stably transfected cells expressing the receptor of interest (HEK293 for 5-HT2A and 5-HT2C; CHO-K1 for 5-HT2B) were grown and plated in a 384 well plate and incubated at 37° C. and 5% CO2 overnight. A 250 mM stock solution of probenecid in FLIPR calcium assay buffer (10 mL) was freshly prepared and combined with a fluorescent dye (Fluo-4 Direct) to give a final assay concentration of 2.5 mM. Reference compounds were 4-fold serially diluted and the screening compounds were 3-fold serially diluted in 100% DMSO for 10 points using Agilent Bravo, and 750 nL was added to a 384 well compound plate using Echo along with 30 μL assay buffer. The fluorescent dye was then added to the assay plate along with assay buffer to a final volume of […]. The cell plate was incubated for 50 min at 37° C. and 5% CO2 and placed into the FLIPR Tetra along with the compound plate. 10 μL of references and compounds were then transferred from the compound plate into the cell plate and the fluorescent signal was read.

5-HT2C receptor = biological target: T3, 5-HT2C receptor (Homo sapiens, UniProt P28335); assay: cell-based; conditions: agonist activity, Ca2+ flux, HEK293 cells; for EC50: read-out: 5-HT2C EC50
T3 construct: host or cells: HEK293
T3 sequence (P28335 33-458): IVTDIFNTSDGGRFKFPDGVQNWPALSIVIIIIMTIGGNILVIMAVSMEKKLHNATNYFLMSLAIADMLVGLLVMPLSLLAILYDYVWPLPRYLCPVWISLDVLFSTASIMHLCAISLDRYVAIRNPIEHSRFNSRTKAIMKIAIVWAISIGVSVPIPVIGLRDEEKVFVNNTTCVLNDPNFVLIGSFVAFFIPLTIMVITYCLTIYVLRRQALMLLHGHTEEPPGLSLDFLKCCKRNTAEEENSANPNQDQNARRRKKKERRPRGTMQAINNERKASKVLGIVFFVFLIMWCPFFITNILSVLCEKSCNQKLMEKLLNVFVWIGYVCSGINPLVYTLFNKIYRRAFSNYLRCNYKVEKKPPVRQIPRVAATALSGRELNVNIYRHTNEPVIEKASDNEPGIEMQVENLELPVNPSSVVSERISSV

T1 sequence (P41595 whole entry): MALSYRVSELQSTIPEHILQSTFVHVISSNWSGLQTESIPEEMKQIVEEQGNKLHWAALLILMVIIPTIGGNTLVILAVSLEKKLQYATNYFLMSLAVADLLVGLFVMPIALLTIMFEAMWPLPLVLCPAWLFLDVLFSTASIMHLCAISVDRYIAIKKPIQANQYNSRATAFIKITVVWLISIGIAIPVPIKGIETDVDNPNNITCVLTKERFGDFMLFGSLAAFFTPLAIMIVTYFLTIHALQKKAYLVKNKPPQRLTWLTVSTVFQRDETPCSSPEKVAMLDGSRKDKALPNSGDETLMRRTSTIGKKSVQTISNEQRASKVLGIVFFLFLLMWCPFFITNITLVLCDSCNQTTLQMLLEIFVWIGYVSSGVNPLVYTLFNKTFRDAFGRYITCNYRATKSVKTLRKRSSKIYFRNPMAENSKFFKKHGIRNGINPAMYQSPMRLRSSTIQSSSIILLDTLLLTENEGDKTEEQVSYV

## COc1ccc(F)c2[nH]cc(CCN(C)C(C)C)c12 [Example P-103, N-(2-(7-fluoro-4-methoxy-1H-indol-3-yl)ethyl)-N-methylpropan-2-amine]
5-HT2B receptor
  Emax: 3.67%
  EC50: > 10000 nM
5-HT2A receptor
  Emax: 61.8%
  EC50: 34.6 nM
5-HT2C receptor
  Emax: 7.02%
  EC50: > 10000 nM

## CCN(CC)CCc1c[nH]c2ccc(C)c(O)c12 [Example P-67, 3-(2-(diethylamino)ethyl)-5-methyl-1H-indol-4-ol]
5-HT2B receptor
  Emax: 11.7%
  EC50: ≥ 10000 nM
5-HT2A receptor
  Emax: 78.3%
  EC50: 163 nM
5-HT2C receptor
  Emax: 78.2%
  EC50: 922 nM

## Cc1nc2c(ccc3[nH]cc(CCN(C)C(C)C)c32)o1 [Example P-133, N-methyl-N-(2-(2-methyl-6H-oxazolo[4,5-e]indol-8-yl)ethyl)propan-2-amine]
5-HT2B receptor
  Emax: 22.4%
  EC50: 68.6 nM
5-HT2A receptor
  Emax: 78.4%
  EC50: 27.9 nM
5-HT2C receptor
  Emax: 72.6%
  EC50: 894 nM

## COc1c(C)ccc2[nH]cc(CCN(C)C)c12 [Example P-9, 2-(4-methoxy-5-methyl-1H-indol-3-yl)-N,N-dimethylethan-1-amine]
5-HT2B receptor
  Emax: 17.3%
  EC50: > 10000 nM
5-HT2A receptor
  Emax: 65%
  EC50: 24.6 nM
5-HT2C receptor
  Emax: 80.7%
  EC50: 6.23 nM

## COc1cc2c(CCN(C)C(C)C)c[nH]c2cc1C [Example P-44, N-(2-(5-methoxy-6-methyl-1H-indol-3-yl)ethyl)-N-methylpropan-2-amine]
5-HT2B receptor
  Emax: 7.11%
5-HT2A receptor
  Emax: 72.6%
5-HT2C receptor
  Emax: 70.8%

## CC(C)N(CCc1c[nH]c2ccc3ocnc3c12)C(C)C [Example P-130, N-(2-(6H-oxazolo[4,5-e]indol-8-yl)ethyl)-N-isopropylpropan-2-amine]
5-HT2B receptor
  Emax: 114%
  EC50: 7.54 nM
5-HT2A receptor
  Emax: 87.5%
  EC50: 18.1 nM
5-HT2C receptor
  Emax: 104%
  EC50: 203 nM

## COc1cc(F)cc2[nH]cc(CCN(C)C)c12 [Example P-14, 2-(6-fluoro-4-methoxy-1H-indol-3-yl)-N,N-dimethylethan-1-amine]
5-HT2B receptor
  Emax: 0.17%
  EC50: > 10000 nM
5-HT2A receptor
  Emax: 87.2%
  EC50: 12.9 nM
5-HT2C receptor
  Emax: 75.7%
  EC50: 2.6 nM

## CCN(CC)CCc1c[nH]c2ccc(F)c(OC)c12 [Example P-94, N,N-diethyl-2-(5-fluoro-4-methoxy-1H-indol-3-yl)ethan-1-amine]
5-HT2B receptor
  Emax: 47.4%
  EC50: 94.2 nM
5-HT2A receptor
  Emax: 98.1%
  EC50: 11.2 nM
5-HT2C receptor
  Emax: 58%
  EC50: 131 nM

## CCN(C)CCc1c[nH]c2cc(F)cc(OC)c12 [Example P-96, N-ethyl-2-(6-fluoro-4-methoxy-1H-indol-3-yl)-N-methylethan-1-amine]
5-HT2B receptor
  Emax: 19.6%
  EC50: > 10000 nM
5-HT2A receptor
  Emax: 73.6%
  EC50: 8 nM
5-HT2C receptor
  Emax: 79.6%
  EC50: 60.2 nM

## Cc1nc2c(ccc3[nH]cc(CCN(C(C)C)C(C)C)c32)o1 [Example P-135, N-isopropyl-N-(2-(2-methyl-6H-oxazolo[4,5-e]indol-8-yl)ethyl)propan-2-amine]
5-HT2B receptor
  Emax: 91.3%
  EC50: 31.4 nM
5-HT2A receptor
  Emax: 78.3%
  EC50: 25.1 nM
5-HT2C receptor
  Emax: 99.2%
  EC50: 2070 nM

## Cc1cc(O)c2c(CCN(C)C)c[nH]c2c1 [Example P-12, 3-(2-(dimethylamino)ethyl)-6-methyl-1H-indol-4-ol]
5-HT2B receptor
  Emax: 1.23%
  EC50: > 10000 nM
5-HT2A receptor
  Emax: 67.8%
  EC50: 80.4 nM
5-HT2C receptor
  Emax: 69.3%
  EC50: 144 nM

## CCN(CC)CCc1c[nH]c2cc(F)cc(OC)c12 [Example P-98, N,N-diethyl-2-(6-fluoro-4-methoxy-1H-indol-3-yl)ethan-1-amine]
5-HT2B receptor
  Emax: 63.6%
  EC50: 5430 nM
5-HT2A receptor
  Emax: 64.3%
  EC50: 16 nM
5-HT2C receptor
  Emax: 71.8%
  EC50: 311 nM

## CCCN(C)CCc1c[nH]c2ccc(C)c(O)c12 [Example P-65, 5-methyl-3-(2-(methyl(propyl)amino)ethyl)-1H-indol-4-ol]
5-HT2B receptor
  Emax: 6.22%
  EC50: ≥ 10000 nM
5-HT2A receptor
  Emax: 78.8%
  EC50: 56.1 nM
5-HT2C receptor
  Emax: 66.3%
  EC50: 175 nM

## CCN(C)CCc1c[nH]c2ccc(C)c(OC)c12 [Example P-59, N-ethyl-2-(4-methoxy-5-methyl-1H-indol-3-yl)-N-methylethan-1-amine]
5-HT2B receptor
  Emax: 68.1%
  EC50: 4710 nM
5-HT2A receptor
  Emax: 78%
  EC50: 34.6 nM
5-HT2C receptor
  Emax: 90.5%
  EC50: 43.8 nM

## COc1cc(F)cc2[nH]cc(CCN(C)C(C)C)c12 [Example P-97, N-(2-(6-fluoro-4-methoxy-1H-indol-3-yl)ethyl)-N-methylpropan-2-amine]
5-HT2B receptor
  Emax: 14.2%
  EC50: > 10000 nM
5-HT2A receptor
  Emax: 65.4%
  EC50: 6.76 nM
5-HT2C receptor
  Emax: 59.8%
  EC50: 336 nM

## CCN(C)CCc1c[nH]c2cc(F)cc(F)c12 [Example P-148, 2-(4,6-difluoro-1H-indol-3-yl)-N-ethyl-N-methylethan-1-amine]
5-HT2B receptor
  Emax: 35.6%
  EC50: ≥ 10000 nM
5-HT2A receptor
  Emax: 78.9%
  EC50: 51.4 nM
5-HT2C receptor
  Emax: 35.6%

## CN(C)CCc1c[nH]c2ccc3c(c12)OCC3 [Example P-3, 2-(3,6-dihydro-2H-furo[2,3-e]indol-8-yl)-N,N-dimethylethan-1-amine]
5-HT2B receptor
  Emax: 13.8%
  EC50: > 10000 nM
5-HT2A receptor
  Emax: 81%
  EC50: 9.73 nM
5-HT2C receptor
  Emax: 76.4%
  EC50: 16.2 nM

## COc1cc(C)c2[nH]cc(CCN(C(C)C)C(C)C)c2c1 [Example P-58, N-isopropyl-N-(2-(5-methoxy-7-methyl-1H-indol-3-yl)ethyl)propan-2-amine]
5-HT2B receptor
  Emax: 42.8%
  EC50: 604 nM
5-HT2A receptor
  Emax: 84%
  EC50: 475 nM
5-HT2C receptor
  Emax: 85.8%
  EC50: 1700 nM

## Cc1ccc(O)c2c(CCN(C)C(C)C)c[nH]c12 [Example P-87, 3-(2-(isopropyl(methyl)amino)ethyl)-7-methyl-1H-indol-4-ol]
5-HT2B receptor
  Emax: -0.38%
  EC50: ≥ 10000 nM
5-HT2A receptor
  Emax: 62.4%
  EC50: 113 nM
5-HT2C receptor
  Emax: 4.33%
  EC50: > 10000 nM

## CCN(CC)CCc1c[nH]c2ccc(F)c(F)c12 [Example P-145, 2-(4,5-difluoro-1H-indol-3-yl)-N,N-diethylethan-1-amine]
5-HT2B receptor
  Emax: 51.5%
  EC50: 23.3 nM
5-HT2A receptor
  Emax: 98.5%
  EC50: 10.6 nM
5-HT2C receptor
  Emax: 72.3%
  EC50: 102 nM

## Cc1ccc2[nH]cc(CCN(C)C)c2c1O [Example P-10, 3-(2-(dimethylamino)ethyl)-5-methyl-1H-indol-4-ol]
5-HT2B receptor
  Emax: -0.21%
  EC50: > 10000 nM
5-HT2A receptor
  Emax: 63.1%
  EC50: 55.1 nM
5-HT2C receptor
  Emax: 71.2%
  EC50: 72.8 nM

## CN(C)CCc1c[nH]c2c(F)c(F)ccc12 [Example P-159, 2-(6,7-difluoro-1H-indol-3-yl)-N,N-dimethylethan-1-amine]
5-HT2B receptor
  Emax: 3.79%
  EC50: > 10000 nM
5-HT2A receptor
  Emax: 62%
  EC50: 28.6 nM
5-HT2C receptor
  Emax: 99.3%
  EC50: 36.5 nM

## COc1c(C)ccc2[nH]cc(CCN(C)C(C)C)c12 [Example P-60, N-(2-(4-methoxy-5-methyl-1H-indol-3-yl)ethyl)-N-methylpropan-2-amine]
5-HT2B receptor
  Emax: 71%
  EC50: 768 nM
5-HT2A receptor
  Emax: 66.3%
  EC50: 77.6 nM
5-HT2C receptor
  Emax: 72.2%
  EC50: 198 nM
